For assay [1], the target named is T1, Cyclooxygenase (CO) (Homo sapiens, UniProt P23219).
T1 construct: The leukocytes were homogenised and 5 μM arachidonic acid added; endogenous in cells; host or cells: leukocytes from blood of normal aspirin-free volunteers, separated from red cells and platelets by centrifugation, homogenised
The assay is described as follows: In vitro inhibition of cyclooxygenase (CO): thromboxane release from arachidonic acid in leukocyte homogenate, radioimmunoassay. The assay is classed as biochemical. The settings on record: volunteers' blood, 5 μM arachidonic acid, 37°, 5 minutes, thromboxane B4 RIA. How it is done:
(§1) In vitro inhibition of 5-lipoxygenase (LO) and Cyclooxygenase (CO)
(§2) Blood from normal aspirin-free volunteers was centrifuged to separate leukocytes from red cells and platelets. The leukocytes were homogenised and 5 μM arachidonic acid added, followed by incubation at 37° for 5 minutes. The reaction was stopped by boiling. Radioimmunoassay was conducted for leukotriene B4 (an LO product) and […] (a CO product). Results were calculated as IC50 μM activity against each enzyme and as listed below.

Assay [2] concerns the target T2, 5-lipoxygenase (LO) (Homo sapiens, UniProt P09917).
T2 construct: The leukocytes were homogenised and 5 μM arachidonic acid added; endogenous in cells; host or cells: leukocytes from blood of normal aspirin-free volunteers, separated from red cells and platelets by centrifugation, homogenised
T2 sequence (P09917 1-674): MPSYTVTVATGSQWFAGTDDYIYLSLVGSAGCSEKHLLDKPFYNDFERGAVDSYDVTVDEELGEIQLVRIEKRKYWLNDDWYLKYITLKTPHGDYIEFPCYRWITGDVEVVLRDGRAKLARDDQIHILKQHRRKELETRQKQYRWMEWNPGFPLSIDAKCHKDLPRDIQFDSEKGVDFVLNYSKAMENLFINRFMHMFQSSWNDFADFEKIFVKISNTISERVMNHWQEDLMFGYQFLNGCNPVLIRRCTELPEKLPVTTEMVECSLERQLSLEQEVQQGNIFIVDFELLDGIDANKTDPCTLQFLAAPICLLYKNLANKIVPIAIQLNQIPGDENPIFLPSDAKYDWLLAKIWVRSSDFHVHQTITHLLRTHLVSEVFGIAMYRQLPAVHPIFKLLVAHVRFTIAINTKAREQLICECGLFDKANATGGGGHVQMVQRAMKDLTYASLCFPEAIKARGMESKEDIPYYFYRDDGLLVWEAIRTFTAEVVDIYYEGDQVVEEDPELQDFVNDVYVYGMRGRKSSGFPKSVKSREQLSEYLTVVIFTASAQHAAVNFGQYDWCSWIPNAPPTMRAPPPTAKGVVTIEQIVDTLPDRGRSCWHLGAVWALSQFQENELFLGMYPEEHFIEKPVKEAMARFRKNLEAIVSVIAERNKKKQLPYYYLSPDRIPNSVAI
Nature of the assay: In vitro inhibition of 5-lipoxygenase (LO): leukotriene B4 from arachidonic acid in leukocyte homogenate, radioimmunoassay. The assay is classed as biochemical. The settings on record: volunteers' blood, 5 μM arachidonic acid, 37°, 5 minutes, leukotriene B4 RIA. How it is done: as §1, §2

T1 sequence (P23219 24-599): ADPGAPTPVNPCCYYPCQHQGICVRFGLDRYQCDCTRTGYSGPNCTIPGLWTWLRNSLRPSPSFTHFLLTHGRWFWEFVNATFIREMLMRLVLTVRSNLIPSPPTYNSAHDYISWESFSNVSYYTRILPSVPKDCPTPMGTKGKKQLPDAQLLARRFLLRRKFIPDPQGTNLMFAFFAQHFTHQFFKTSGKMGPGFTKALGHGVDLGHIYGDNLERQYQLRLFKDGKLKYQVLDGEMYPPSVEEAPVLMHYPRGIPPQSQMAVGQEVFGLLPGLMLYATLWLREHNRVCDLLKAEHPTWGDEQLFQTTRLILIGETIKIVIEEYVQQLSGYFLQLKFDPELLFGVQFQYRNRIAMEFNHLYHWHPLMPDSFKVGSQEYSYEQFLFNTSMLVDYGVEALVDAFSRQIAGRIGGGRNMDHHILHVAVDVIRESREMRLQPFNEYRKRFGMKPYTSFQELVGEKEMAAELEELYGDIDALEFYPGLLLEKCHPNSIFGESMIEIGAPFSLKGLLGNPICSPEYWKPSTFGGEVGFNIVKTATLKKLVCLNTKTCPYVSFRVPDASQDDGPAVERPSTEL

Regarding “3-Phenoxy-N-methylcinnamohydroxamic Acid [Example 1]”, the 50% inhibitory concentration (IC50) is 3 µM in assay [1] and < 0.1 µM in assay [2].
